Measurements as given in patent US10246411B2, “(Z)-3,4,5-trimethoxystyrylbenzenesulfonamides as potential anticancer agents” (COUNCIL OF SCIENTIFIC & INDUSTRIAL RESEARCH, priority 2014, dated 2019).

Columns and labels:
[1] = tested on: HL-60(TB); assay: In vitro cytotoxicity (NCI protocol, SRB), HL-60(TB); type: cell-based; details: Homo sapiens, Leukemia HL-60(TB), 48 h exposure
[2] = tested on: SR; assay: In vitro cytotoxicity (NCI protocol, SRB), SR; details: Homo sapiens, 48 h
[3] = tested on: M14; assay: In vitro cytotoxicity (NCI protocol, SRB), M14; details: Homo sapiens, M14, 48 h
[4] = tested on: HT29; assay: In vitro cytotoxicity (NCI protocol, SRB), HT29; details: Homo sapiens, HT-29, 48 h
[5] = tested on: KM12; assay: In vitro cytotoxicity (NCI protocol, SRB), KM12; details: Homo sapiens, KM12, 48 h
[6] = tested on: U251; assay: In vitro cytotoxicity (NCI protocol, SRB), U251; details: Homo sapiens, U-251, 48 h
[7] = tested on: A498; assay: In vitro cytotoxicity (NCI protocol, SRB), A498; details: Homo sapiens, A498, 48 h
[8] = tested on: PC-3; assay: In vitro cytotoxicity (NCI protocol, SRB), PC-3; details: Homo sapiens, PC-3, 48 h
[9] = tested on: MCF7; assay: In vitro cytotoxicity (NCI protocol, SRB), MCF7; details: Homo sapiens, MCF7, 48 h
[10] = tested on: SN12C; assay: In vitro cytotoxicity (NCI protocol, SRB), SN12C; details: Homo sapiens, 48 h
[11] = tested on: HOP-62; assay: In vitro cytotoxicity (NCI protocol, SRB), HOP-62; details: Homo sapiens, HOP-62, 48 h
[12] = tested on: SF-295; assay: In vitro cytotoxicity (NCI protocol, SRB), SF-295; details: Homo sapiens, SF-295, 48 h
[13] = tested on: SF-539; assay: In vitro cytotoxicity (NCI protocol, SRB), SF-539; details: Homo sapiens, 48 h
[14] = tested on: DU-145; assay: In vitro cytotoxicity (NCI protocol, SRB), DU-145; details: Homo sapiens, DU-145, 48 h
[15] = tested on: SNB -75; assay: In vitro cytotoxicity (NCI protocol, SRB), SNB -75; details: Homo sapiens, SNB-75, 48 h
[16] = tested on: OVCAR-3; assay: In vitro cytotoxicity (NCI protocol, SRB), OVCAR-3; details: Homo sapiens, OVCAR-3, 48 h
[17] = tested on: OVCAR-4; assay: In vitro cytotoxicity (NCI protocol, SRB), OVCAR-4; details: Homo sapiens, OVCAR-4, 48 h
[18] = tested on: OVCAR-5; assay: In vitro cytotoxicity (NCI protocol, SRB), OVCAR-5; details: Homo sapiens, OVCAR-5, 48 h
[19] = tested on: OVCAR-8; assay: In vitro cytotoxicity (NCI protocol, SRB), OVCAR-8; details: Homo sapiens, OVCAR-8, 48 h
[20] = tested on: SK-OV-3; assay: In vitro cytotoxicity (NCI protocol, SRB), SK-OV-3; details: Homo sapiens, SK-OV-3, 48 h
[21] = tested on: HS 578T; assay: In vitro cytotoxicity (NCI protocol, SRB), HS 578T; details: Homo sapiens, 48 h
[22] = tested on: NCI-H226; assay: In vitro cytotoxicity (NCI protocol, SRB), NCI-H226; details: Homo sapiens, NCI-H226, 48 h
[23] = tested on: NCI-H460; assay: In vitro cytotoxicity (NCI protocol, SRB), NCI-H460; details: Homo sapiens, NCI-H460, 48 h
[24] = tested on: HCC-2998; assay: In vitro cytotoxicity (NCI protocol, SRB), HCC-2998; details: Homo sapiens, HCC 2998, 48 h
[25] = tested on: LOX IMVI; assay: In vitro cytotoxicity (NCI protocol, SRB), LOX IMVI; details: Homo sapiens, 48 h
[26] = tested on: SK-MEL-2; assay: In vitro cytotoxicity (NCI protocol, SRB), SK-MEL-2; details: Homo sapiens, SK-MEL-2, 48 h
[27] = tested on: SK-MEL-5; assay: In vitro cytotoxicity (NCI protocol, SRB), SK-MEL-5; details: Homo sapiens, SK-MEL-5, 48 h
[28] = tested on: A549/ATCC; assay: In vitro cytotoxicity (NCI protocol, SRB), A549/ATCC; details: Homo sapiens, A549, 48 h
[29] = tested on: NCI/ADR-RES; assay: In vitro cytotoxicity (NCI protocol, SRB), NCI/ADR-RES; details: Homo sapiens, 48 h
[30] = tested on: MDA-MB-231/ATCC; assay: In vitro cytotoxicity (NCI protocol, SRB), MDA-MB-231/ATCC; details: Homo sapiens, MDA-MB-231, 48 h
[31] = tested on: T-47D; assay: In vitro cytotoxicity (NCI protocol, SRB), T-47D; details: Homo sapiens, T47D, 48 h

| SMILES | GI50 [1] | GI50 [2] | GI50 [3] | GI50 [4] | GI50 [5] | GI50 [6] | GI50 [7] | GI50 [8] | GI50 [9] | GI50 [10] | GI50 [11] | GI50 [12] | GI50 [13] | GI50 [14] | GI50 [15] | GI50 [16] | GI50 [17] | GI50 [18] | GI50 [19] | GI50 [20] | further results |
| --- | --- | --- | --- | --- | --- | --- | --- | --- | --- | --- | --- | --- | --- | --- | --- | --- | --- | --- | --- | --- | --- |
| COc1ccc(S(=O)(=O)Nc2cc(/C=C\c3cc(OC)c(OC)c(OC)c3)ccc2OC)cc1 [12a, (Z)-4-methoxy-N-(2-methoxy-5-(3,4,5-trimethoxystyryl)phenyl)benzenesulfonamide] | 0.195 µM | 0.0709 µM | 0.103 µM | 0.081 µM | 0.0738 µM | 0.108 µM | 0.0353 µM | 0.124 µM | 0.0426 µM | 0.682 µM | 0.041 µM | 0.0393 µM | 0.126 µM | 0.341 µM | 0.0708 µM | 0.0528 µM | 0.581 µM | 0.323 µM | 0.276 µM | 0.0963 µM | GI50 [21]: 0.226 µM; GI50 [22]: 12.8 µM; GI50 [23]: 0.178 µM; GI50 [24]: 0.442 µM; GI50 [25]: 0.272 µM; GI50 [26]: 0.0803 µM; GI50 [27]: 0.0488 µM; GI50 [28]: 0.159 µM; GI50 [29]: 0.0711 µM; GI50 [30]: 0.399 µM |
| COc1ccc(S(=O)(=O)Nc2cc(/C=C\c3cc(OC)c(OC)c(OC)c3)cc(OC)c2OC)cc1 [13a, (Z)—N-(2,3-dimethoxy-5-(3,4,5-trimethoxystyryl)phenyl)-4-methoxybenzenesulfonamide] | 0.0234 µM | 0.0352 µM | 0.0301 µM | 0.0331 µM | 0.0397 µM | 0.0357 µM | 0.0217 µM | 0.038 µM | 0.036 µM | 0.0698 µM | 0.0405 µM | 0.0311 µM | 0.0253 µM | 0.0416 µM | 0.0265 µM | 0.0345 µM | 0.0842 µM | 0.0499 µM | 0.0459 µM | 0.0378 µM | GI50 [31]: 5.21 µM; GI50 [21]: 0.0452 µM; GI50 [22]: 27.3 µM; GI50 [23]: 0.0367 µM; GI50 [24]: 0.0391 µM; GI50 [25]: 0.05 µM; GI50 [26]: 0.0374 µM; GI50 [27]: 0.0359 µM; GI50 [28]: 0.0474 µM; GI50 [29]: 0.0353 µM; GI50 [30]: 0.0479 µM |
| COc1cc(/C=C\c2cc(OC)c(OC)c(OC)c2)cc(NS(=O)(=O)c2ccc(Cl)cc2)c1OC [13c, (Z)-4-chloro-N-(2,3-dimethoxy-5-(3,4,5-trimethoxystyryl)phenyl)benzenesulfonamide] | 0.249 µM | 0.406 µM | 0.391 µM | 0.348 µM | 0.572 µM | 0.461 µM | 0.179 µM | 0.395 µM | 0.375 µM | 0.75 µM | 0.414 µM | 0.319 µM | 0.303 µM | 0.507 µM | 0.227 µM | 0.364 µM | 1.53 µM | 0.726 µM | 0.6 µM | 0.449 µM | GI50 [31]: 0.381 µM; GI50 [21]: 0.351 µM; GI50 [22]: 13.5 µM; GI50 [23]: 0.364 µM; GI50 [24]: 1.98 µM; GI50 [25]: 0.566 µM; GI50 [26]: 0.613 µM; GI50 [27]: 0.297 µM; GI50 [28]: 0.716 µM; GI50 [29]: 0.364 µM; GI50 [30]: 1.16 µM |
| COc1ccc(S(=O)(=O)Nc2c(/C=C\c3cc(OC)c(OC)c(OC)c3)ccc(OC)c2O)cc1 [17a, (Z)—N-(2-hydroxy-3-methoxy-6-(3,4,5-trimethoxystyryl)phenyl)-4-methoxybenzenesulfonamide] | 0.0235 µM | 0.0319 µM | 0.0313 µM | 1.4 µM | 0.0355 µM | 0.0374 µM | 0.0188 µM | 0.0408 µM | 0.038 µM | 0.0869 µM | 0.0397 µM | 0.0339 µM | 0.0293 µM | 0.0425 µM | 0.0255 µM | 0.0339 µM | 0.0763 µM | 1.02 µM | 0.0466 µM | 0.0296 µM | GI50 [21]: 0.047 µM; GI50 [22]: 4.13 µM; GI50 [23]: 0.0368 µM; GI50 [24]: 0.0316 µM; GI50 [25]: 0.0455 µM; GI50 [26]: 0.0437 µM; GI50 [27]: 0.0363 µM; GI50 [28]: 0.0459 µM; GI50 [29]: 0.155 µM; GI50 [30]: 0.0503 µM |
| COc1ccc(/C=C\c2cc(OC)c(OC)c(OC)c2)c(NS(=O)(=O)c2ccc(Cl)cc2)c1O [17c, (Z)-4-chloro-N-(2-hydroxy-3-methoxy-6-(3,4,5-trimethoxystyryl)phenyl)benzenesulfonamide] | 0.0331 µM | 0.0306 µM | 0.0913 µM | 2.76 µM | 0.127 µM | 0.287 µM | 0.0229 µM | 0.153 µM | 0.0384 µM | 0.708 µM | 0.671 µM | 0.256 µM | 0.037 µM | 0.2 µM | 0.0331 µM | 0.0602 µM | 0.0972 µM | 2.86 µM | 0.294 µM | 0.229 µM | GI50 [21]: 0.292 µM; GI50 [22]: 24.9 µM; GI50 [23]: 0.316 µM; GI50 [24]: 0.429 µM; GI50 [25]: 0.153 µM; GI50 [26]: 0.0659 µM; GI50 [27]: 0.051 µM; GI50 [28]: 0.27 µM; GI50 [29]: 0.263 µM; GI50 [30]: 0.206 µM |
